Like-named read-outs stand apart in the source and are kept apart here.
Columns and labels:
[1] = test system: A549 lung cancer cells; settings: for Tumour Growth Inhibition (TGI): A549 tumours in nude mice, cisplatin 5 mg/kg; for Tumour Growth Inhibition (TGI) / mean tumour volume on day 21: oltipraz 100 mg/kg; for mean tumour volume on day 1: day 1 (initiation of treatment); for mean tumour volume on day 21: cisplatin 5 mg/kg day 2, vehicle control 536 mm^3
[2] = formulated with CMC
[3] = oltipraz 100 mg/kg po days 1, 3, 8, 10, given with Cetuximab

SMILES | Tumour Growth Inhibition (TGI) [1] [%] | mean tumour volume on day 1 [1] [mm^3] | mean tumour volume on day 21 [1] [mm^3] | average weight gain, % of starting weight by day 21 (female nude mice with A549 tumours, cisplatin 5 mg/kg sc day 2, oltipraz 100 mg/kg po (alone days 1, 3, 8, 10; combination days 1 and 3), day 21) [%] | toxicity based on observations of survival and weight change (oltipraz alone 100 mg/kg po days 1, 3, 8, 10) | amount that can be administered without significant toxicity resulting [2] | toxicity based on observations of survival and weight change [3]
N.N.[Cl][Pt][Cl] [cisplatin, cis-diamminedichloridoplatinum(II)] | 48.8 | 93 | 275 |  |  |  | 
Cc1c(-c2cnccn2)ssc1=S [oltipraz, 4-methyl-5(2-pyrazinyl)-3H-1,2-dithiole-3-thione] | 62.3 | 93 | 200 | 4.9 | no evidence of toxicity | up to 2000 mg/kg | no evidence of toxicity

Reference: patent US20110142829A1, “ANTI-TUMOUR COMPOSITIONS AND METHODS” (priority 2008, published 2011)
